Reference: patent US20060046968A1, “Prodrug substituted benzoxazoles as estrogenic agents” (priority 2004, published 2006)

Legend:
Assay type in all cases: in vivo
[1] = test system: Sexually immature Sprague-Dawley rats; experiment: Rat uterotrophic test procedure (Procedure 1); conditions: compound 2 mg/rat + 17α-ethinyl, 17β-estradiol 0.06 μg/rat s.c. (antagonist mode)
[2] = test system: Sexually immature 129 SvE mice; experiment: Mouse uterotrophic test procedure (Procedure 2); conditions: compound 50 mg/kg s.c., days 22-25
[3] = test system: Progesterone receptor mRNA; experiment: Progesterone receptor mRNA regulation in the preoptic area of the rat brain; conditions: 10 mg/kg
Male HLA-B27 rats [4] = experiment: HLA-B27 rat model of arthritis: joint scores; conditions: Study 2
Male HLA-B27 rats [5] = experiment: HLA rat test for inflammatory bowel disease: stool character (3 = diarrhea; 2 = soft stool; 1 = normal stool); conditions: Study B
Male HLA-B27 rats [6] = experiment: HLA-B27 rat test for inflammatory bowel disease: histological scoring of colon; conditions: Study B, oral 4 weeks
Protocol: Representative metabolites of compounds of the invention were evaluated in the HLA rat standard pharmacological test procedure, which emulates inflammatory bowel disease in humans. The following briefly describes the procedure used and results obtained. […] Louis) and water. Stool quality was observed daily and graded according to the following scale: Diarrhea=3; soft stool=2; normal stool=1. At the end of the study, serum was collected and stored at −70° C. A section of colon was prepared for histological analysis and an additional segment was analyzed for myeloperoxidase activity. In Study A, rats (22-26 weeks old) were dosed subcutaneously once per day for seven days with one of the regimens listed below. […] Histological analysis. Colonic tissue was immersed in 10% neutral buffered formalin. Each specimen of colon was separated into four samples for evaluation. The formalin-fixed tissues were processed in a Tissue-Tek® vaccum infiltration processor (Miles, Inc; West Haven, Conn.) for paraffin embedding. The samples were sectioned at 5 μm and then stained with hematoxylin and eosin (H&E) for blinded histological evaluations using a scale modified after Boughton-Smith. After the scores were completed, the samples were unblinded, and data were tabulated and analyzed by ANOVA linear modeling with multiple mean comparisons. Sections of colonic tissue were evaluated for several disease indicators and given relative scores.

[7] = oral 20 mg/kg (10 mg/kg days 1-14), Day 16
[8] = oral 20 mg/kg (10 mg/kg days 1-14), Day 17
[9] = oral 20 mg/kg (10 mg/kg days 1-14), Day 19
[10] = oral 20 mg/kg (10 mg/kg days 1-14), Day 22
[11] = oral 20 mg/kg (10 mg/kg days 1-14), Day 23
[12] = oral 20 mg/kg (10 mg/kg days 1-14), Day 26
[13] = 10 mg/kg days 1-14, then 20 mg/kg

With `Oc1ccc(-c2nc3cc(O)ccc3o2)cc1` [Example 12, 2-(4-HYDROXYPHENYL)-1,3-BENZOXAZOL-5-OL] the “mean uterine weight ± SEM” value [1] was 60.2 ± 4.0 mg, the “mean uterine weight ± SEM” value [2] was 13.7 ± 0.82 mg and the “Progesterone receptor mRNA (mean ± stdev)” value (shortened to “Progesterone receptor mRNA”) [3] was 256.2 ± 42.3 arbitrary units.
`C=Cc1cc(O)cc2nc(-c3ccc(O)cc3F)oc12` [Example 25, 2-(2-FLUORO-4-HYDROXYPHENYL)-7-VINYL-1,3-BENZOXAZOL-5-OL] showed a Joint inflammation score (Male HLA-B27 rats [4]; oral 10 mg/kg, Day 1) of 0, a Joint inflammation score (Male HLA-B27 rats [4]; oral 10 mg/kg, Day 2) of 0 and a Joint inflammation score (Male HLA-B27 rats [4]; oral 10 mg/kg, Day 3) of 0. The Joint inflammation score (Male HLA-B27 rats [4]; oral 10 mg/kg, Day 4) was 0, the Joint inflammation score (Male HLA-B27 rats [4]; oral 10 mg/kg, Day 5) was 0 and the Joint inflammation score (Male HLA-B27 rats [4]; oral 10 mg/kg, Day 6) was 0. The Joint inflammation score (Male HLA-B27 rats [4]; oral 10 mg/kg, Day 7) was 0, the Joint inflammation score (Male HLA-B27 rats [4]; oral 10 mg/kg, Day 8) was 1 and the Joint inflammation score (Male HLA-B27 rats [4]; oral 10 mg/kg, Day 10) was 2.25. For the same compound, the Joint inflammation score (Male HLA-B27 rats [4]; oral 10 mg/kg, Day 11) was 2.25, the Joint inflammation score (Male HLA-B27 rats [4]; oral 20 mg/kg (10 mg/kg days 1-14), Day 15) was 3.75 and the Joint inflammation score (Male HLA-B27 rats [4]; [7]) was 3. It also gave a Joint inflammation score (Male HLA-B27 rats [4]; [8]) of 2.75, a Joint inflammation score (Male HLA-B27 rats [4]; [9]) of 1.5 and a Joint inflammation score (Male HLA-B27 rats [4]; [10]) of 1.25. The Joint inflammation score (Male HLA-B27 rats [4]; [11]) was 2.5, the Joint inflammation score (Male HLA-B27 rats [4]; [12]) was 1.75 and the “Stool Character (group's average score)” value (Male HLA-B27 rats [5]; oral 10 mg/kg, Day 1) was 1. For the same compound, the “Stool Character (group's average score)” value (Male HLA-B27 rats [5]; oral 10 mg/kg, Day 2) was 1, the “Stool Character (group's average score)” value (Male HLA-B27 rats [5]; oral 10 mg/kg, Day 3) was 1.25 and the “Stool Character (group's average score)” value (Male HLA-B27 rats [5]; oral 10 mg/kg, Day 4) was 1.25. The “Stool Character (group's average score)” value (Male HLA-B27 rats [5]; oral 10 mg/kg, Day 5) was 1.75, the “Stool Character (group's average score)” value (Male HLA-B27 rats [5]; oral 10 mg/kg, Day 6) was 1.5 and the “Stool Character (group's average score)” value (Male HLA-B27 rats [5]; oral 10 mg/kg, Day 9) was 1.75. For the same compound, the “Stool Character (group's average score)” value (Male HLA-B27 rats [5]; oral 10 mg/kg, Day 10) was 1.5, the “Stool Character (group's average score)” value (Male HLA-B27 rats [5]; oral 10 mg/kg, Day 12) was 1.75 and the “Stool Character (group's average score)” value (Male HLA-B27 rats [5]; oral 10 mg/kg, Day 13) was 2.25. The “Stool Character (group's average score)” value (Male HLA-B27 rats [5]; [7]) was 1.5, the “Stool Character (group's average score)” value (Male HLA-B27 rats [5]; [8]) was 1.5 and the “Stool Character (group's average score)” value (Male HLA-B27 rats [5]; oral 20 mg/kg (10 mg/kg days 1-14), Day 18) was 1.5. For the same compound, the “Stool Character (group's average score)” value (Male HLA-B27 rats [5]; [9]) was 1.25, the “Stool Character (group's average score)” value (Male HLA-B27 rats [5]; [10]) was 1.25 and the “Stool Character (group's average score)” value (Male HLA-B27 rats [5]; [11]) was 1.25. For the same compound, the “Stool Character (group's average score)” value (Male HLA-B27 rats [5]; oral 20 mg/kg (10 mg/kg days 1-14), Day 24) was 1.25, the “Stool Character (group's average score)” value (Male HLA-B27 rats [5]; oral 20 mg/kg (10 mg/kg days 1-14), Day 25) was 1.25 and the “Stool Character (group's average score)” value (Male HLA-B27 rats [5]; [12]) was 1.25. The “Fibrosis (0-2), mean ± SD” value (Male HLA-B27 rats [6]; [13]) was 0.31 ± 0.13, the “Inflammation (0-3), mean ± SD” value (Male HLA-B27 rats [6]; [13]) was 1.50 ± 0.35 and the “Lesion depth (0-2), mean ± SD” value (Male HLA-B27 rats [6]; [13]) was 0.44 ± 0.24. The “Total score, mean ± SD” value (Male HLA-B27 rats [6]; [13]) was 2.69 ± 0.52, the “Ulceration (0-2), mean ± SD” value (Male HLA-B27 rats [6]; [13]) was 0.44 ± 0.24 and the “mean uterine weight ± SEM” value [2] was 9.7 ± 1.0 mg. The “Progesterone receptor mRNA” value [3] was 447.0 ± 60.7 arbitrary units.
Compound `C=CCc1cc(O)cc2nc(-c3ccc(O)c(F)c3)oc12` [Example 34, 7-ALLYL-2-(3-FLUORO-4-HYDROXYPHENYL)-1,3-BENZOXAZOL-5-OL] has a Joint inflammation score (Male HLA-B27 rats [4]; oral 10 mg/kg, Day 1) of 0, a Joint inflammation score (Male HLA-B27 rats [4]; oral 10 mg/kg, Day 2) of 0 and a Joint inflammation score (Male HLA-B27 rats [4]; oral 10 mg/kg, Day 3) of 0. The Joint inflammation score (Male HLA-B27 rats [4]; oral 10 mg/kg, Day 4) was 0, the Joint inflammation score (Male HLA-B27 rats [4]; oral 10 mg/kg, Day 5) was 0 and the Joint inflammation score (Male HLA-B27 rats [4]; oral 10 mg/kg, Day 6) was 0. The Joint inflammation score (Male HLA-B27 rats [4]; oral 10 mg/kg, Day 7) was 0, the Joint inflammation score (Male HLA-B27 rats [4]; oral 10 mg/kg, Day 8) was 0.25 and the Joint inflammation score (Male HLA-B27 rats [4]; oral 10 mg/kg, Day 9) was 0.75. For the same compound, the Joint inflammation score (Male HLA-B27 rats [4]; oral 10 mg/kg, Day 10) was 0.5, the Joint inflammation score (Male HLA-B27 rats [4]; oral 10 mg/kg, Day 11) was 0.5 and the Joint inflammation score (Male HLA-B27 rats [4]; oral 10 mg/kg, Day 12) was 0.25. The Joint inflammation score (Male HLA-B27 rats [4]; oral 10 mg/kg, Day 13) was 0.5, the Joint inflammation score (Male HLA-B27 rats [4]; oral 10 mg/kg, Day 14) was 0 and the Joint inflammation score (Male HLA-B27 rats [4]; oral 10 mg/kg, Day 15) was 0.5. For the same compound, the Joint inflammation score (Male HLA-B27 rats [4]; oral 10 mg/kg, Day 16) was 0.5, the Joint inflammation score (Male HLA-B27 rats [4]; oral 10 mg/kg, Day 17) was 0.25 and the Joint inflammation score (Male HLA-B27 rats [4]; oral 10 mg/kg, Day 18) was 0.75. The Joint inflammation score (Male HLA-B27 rats [4]; oral 10 mg/kg, Day 19) was 1, the Joint inflammation score (Male HLA-B27 rats [4]; oral 10 mg/kg, Day 22) was 1 and the Joint inflammation score (Male HLA-B27 rats [4]; oral 10 mg/kg, Day 23) was 1.75. For the same compound, the Joint inflammation score (Male HLA-B27 rats [4]; oral 10 mg/kg, Day 24) was 1.75, the Joint inflammation score (Male HLA-B27 rats [4]; oral 10 mg/kg, Day 25) was 2 and the Joint inflammation score (Male HLA-B27 rats [4]; oral 10 mg/kg, Day 26) was 3. For the same compound, the “Stool Character (group's average score)” value (Male HLA-B27 rats [5]; oral 10 mg/kg, Day 1) was 1, the “Stool Character (group's average score)” value (Male HLA-B27 rats [5]; oral 10 mg/kg, Day 2) was 1 and the “Stool Character (group's average score)” value (Male HLA-B27 rats [5]; oral 10 mg/kg, Day 3) was 1. For the same compound, the “Stool Character (group's average score)” value (Male HLA-B27 rats [5]; oral 10 mg/kg, Day 4) was 1.25, the “Stool Character (group's average score)” value (Male HLA-B27 rats [5]; oral 10 mg/kg, Day 5) was 2 and the “Stool Character (group's average score)” value (Male HLA-B27 rats [5]; oral 10 mg/kg, Day 6) was 1.75. For the same compound, the “Stool Character (group's average score)” value (Male HLA-B27 rats [5]; oral 10 mg/kg, Day 7) was 1.75, the “Stool Character (group's average score)” value (Male HLA-B27 rats [5]; oral 10 mg/kg, Day 8) was 1.5 and the “Stool Character (group's average score)” value (Male HLA-B27 rats [5]; oral 10 mg/kg, Day 9) was 1.5. The “Stool Character (group's average score)” value (Male HLA-B27 rats [5]; oral 10 mg/kg, Day 10) was 1.25, the “Stool Character (group's average score)” value (Male HLA-B27 rats [5]; oral 10 mg/kg, Day 11) was 1.5 and the “Stool Character (group's average score)” value (Male HLA-B27 rats [5]; oral 10 mg/kg, Day 12) was 1.5. For the same compound, the “Stool Character (group's average score)” value (Male HLA-B27 rats [5]; oral 10 mg/kg, Day 13) was 1.25, the “Stool Character (group's average score)” value (Male HLA-B27 rats [5]; oral 10 mg/kg, Day 14) was 1.25 and the “Stool Character (group's average score)” value (Male HLA-B27 rats [5]; oral 10 mg/kg, Day 15) was 1.25. The “Stool Character (group's average score)” value (Male HLA-B27 rats [5]; oral 10 mg/kg, Day 16) was 1, the “Stool Character (group's average score)” value (Male HLA-B27 rats [5]; oral 10 mg/kg, Day 17) was 1 and the “Stool Character (group's average score)” value (Male HLA-B27 rats [5]; oral 10 mg/kg, Day 18) was 1.25. The “Stool Character (group's average score)” value (Male HLA-B27 rats [5]; oral 10 mg/kg, Day 19) was 1, the “Stool Character (group's average score)” value (Male HLA-B27 rats [5]; oral 10 mg/kg, Day 22) was 1 and the “Stool Character (group's average score)” value (Male HLA-B27 rats [5]; oral 10 mg/kg, Day 23) was 1. For the same compound, the “Stool Character (group's average score)” value (Male HLA-B27 rats [5]; oral 10 mg/kg, Day 24) was 1, the “Stool Character (group's average score)” value (Male HLA-B27 rats [5]; oral 10 mg/kg, Day 25) was 1 and the “Stool Character (group's average score)” value (Male HLA-B27 rats [5]; oral 10 mg/kg, Day 26) was 1. The “Fibrosis (0-2), mean ± SD” value (Male HLA-B27 rats [6]; 10 mg/kg) was 0.31 ± 0.32, the “Inflammation (0-3), mean ± SD” value (Male HLA-B27 rats [6]; 10 mg/kg) was 1.81 ± 0.13 and the “Lesion depth (0-2), mean ± SD” value (Male HLA-B27 rats [6]; 10 mg/kg) was 0.63 ± 0.32. The “Total score, mean ± SD” value (Male HLA-B27 rats [6]; 10 mg/kg) was 3.50 ± 1.10, the “Ulceration (0-2), mean ± SD” value (Male HLA-B27 rats [6]; 10 mg/kg) was 0.75 ± 0.46 and the “Progesterone receptor mRNA” value [3] was 511.5 ± 23.7 arbitrary units.
